Results published in ChEMBL document CHEMBL3779837, “Inhibiting the Inflammasome: A Chemical Perspective” (J Med Chem, 2016).
One block for each molecule: values may come before it.

What was measured:
[1] = Half life in C57BL/6 mouse at 3 mg/kg, iv administered as single dose; type: ADME, organism-based; settings: in vivo
[2] = Oral bioavailability in single dosed C57BL/6 mouse at 20 mg/kg; type: ADME, organism-based; settings: in vivo
THP-1 = experiment: Inhibition of caspase-1-mediated IL-1beta production in LPS/ATP induced human THP1 cells by ELISA analysis; type: functional, cell-based
[3] = target: NACHT, LRR and PYD domains-containing protein 3 (Mus musculus, UniProt Q8R4B8); experiment: Inhibition of NLRP3 in LPS stimulated mouse BMDM cells after 15 mins followed by addition of ATP by ELISA analysis; type: cell-based
Caspase-1 = target: T1, Caspase-1 (Homo sapiens, UniProt P29466); experiment: Inhibition of caspase-1 in LPS stimulated human PMBC cells after 2 hrs by ELISA analysis; type: cell-based
T1 sequence (P29466 whole entry): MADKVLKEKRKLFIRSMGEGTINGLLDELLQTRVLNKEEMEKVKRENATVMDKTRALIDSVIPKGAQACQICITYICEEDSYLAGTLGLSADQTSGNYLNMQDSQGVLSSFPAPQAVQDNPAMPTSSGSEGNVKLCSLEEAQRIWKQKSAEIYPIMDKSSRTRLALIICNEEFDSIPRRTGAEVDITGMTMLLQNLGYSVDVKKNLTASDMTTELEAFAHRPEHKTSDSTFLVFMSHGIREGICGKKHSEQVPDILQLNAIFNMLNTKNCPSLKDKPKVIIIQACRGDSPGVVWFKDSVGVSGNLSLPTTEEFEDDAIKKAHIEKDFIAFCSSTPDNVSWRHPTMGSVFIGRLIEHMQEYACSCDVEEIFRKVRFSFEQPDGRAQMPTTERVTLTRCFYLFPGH

Pannexin-1 = Pannexin-1 (Homo sapiens, UniProt Q96RD7); experiment: Binding affinity to pannexin 1 channel (unknown origin)
[4] = Inhibition of organic anion transporter (unknown origin); set-up: species or system Homo sapiens
clinical = settings: human, plasma, po, 500 mg
Toll-like receptor 4 = target: T2, Toll-like receptor 4 (Mus musculus, UniProt Q9QUK6); experiment: Inhibition of TLR4 in LPS/INFgamma stimulated mouse peritoneal macrophages assessed as inhibition of IL1-beta after 20 hrs by ELISA analysis
T2 sequence (Q9QUK6 whole entry): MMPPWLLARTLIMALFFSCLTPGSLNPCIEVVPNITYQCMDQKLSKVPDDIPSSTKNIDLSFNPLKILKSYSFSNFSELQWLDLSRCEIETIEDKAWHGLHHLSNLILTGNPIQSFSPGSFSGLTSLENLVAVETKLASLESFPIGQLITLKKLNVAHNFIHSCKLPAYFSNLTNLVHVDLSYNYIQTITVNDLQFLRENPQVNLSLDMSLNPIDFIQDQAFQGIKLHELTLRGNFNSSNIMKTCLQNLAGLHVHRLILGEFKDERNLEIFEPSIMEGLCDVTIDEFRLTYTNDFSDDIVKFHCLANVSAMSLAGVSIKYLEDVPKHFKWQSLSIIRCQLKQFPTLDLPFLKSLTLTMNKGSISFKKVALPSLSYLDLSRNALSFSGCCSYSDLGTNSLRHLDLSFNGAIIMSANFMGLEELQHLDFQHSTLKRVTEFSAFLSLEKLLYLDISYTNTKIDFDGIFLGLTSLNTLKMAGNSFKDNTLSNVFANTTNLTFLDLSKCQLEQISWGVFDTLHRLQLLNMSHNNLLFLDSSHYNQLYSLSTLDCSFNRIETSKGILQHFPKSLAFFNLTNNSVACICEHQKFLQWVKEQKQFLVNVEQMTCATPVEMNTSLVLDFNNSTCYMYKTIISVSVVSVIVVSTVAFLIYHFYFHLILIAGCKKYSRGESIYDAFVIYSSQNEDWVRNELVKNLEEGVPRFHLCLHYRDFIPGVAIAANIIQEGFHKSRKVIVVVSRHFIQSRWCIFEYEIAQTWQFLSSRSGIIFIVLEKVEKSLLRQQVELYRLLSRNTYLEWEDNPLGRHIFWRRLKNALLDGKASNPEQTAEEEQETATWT

Sequence of Pannexin-1 (Q96RD7 whole entry): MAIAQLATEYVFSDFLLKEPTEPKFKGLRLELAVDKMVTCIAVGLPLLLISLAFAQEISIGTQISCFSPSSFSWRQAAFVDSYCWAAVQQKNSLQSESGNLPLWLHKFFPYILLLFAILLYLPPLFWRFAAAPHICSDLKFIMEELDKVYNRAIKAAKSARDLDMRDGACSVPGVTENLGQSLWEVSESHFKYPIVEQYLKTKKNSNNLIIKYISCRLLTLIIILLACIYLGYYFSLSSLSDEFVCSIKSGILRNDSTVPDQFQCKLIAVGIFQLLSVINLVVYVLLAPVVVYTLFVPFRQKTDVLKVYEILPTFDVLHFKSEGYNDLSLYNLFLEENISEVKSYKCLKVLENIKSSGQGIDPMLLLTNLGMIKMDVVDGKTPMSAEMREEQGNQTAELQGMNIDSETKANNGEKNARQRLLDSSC
Sequence of NACHT, LRR and PYD domains-containing protein 3 (Q8R4B8 whole entry, the tested form may be a part): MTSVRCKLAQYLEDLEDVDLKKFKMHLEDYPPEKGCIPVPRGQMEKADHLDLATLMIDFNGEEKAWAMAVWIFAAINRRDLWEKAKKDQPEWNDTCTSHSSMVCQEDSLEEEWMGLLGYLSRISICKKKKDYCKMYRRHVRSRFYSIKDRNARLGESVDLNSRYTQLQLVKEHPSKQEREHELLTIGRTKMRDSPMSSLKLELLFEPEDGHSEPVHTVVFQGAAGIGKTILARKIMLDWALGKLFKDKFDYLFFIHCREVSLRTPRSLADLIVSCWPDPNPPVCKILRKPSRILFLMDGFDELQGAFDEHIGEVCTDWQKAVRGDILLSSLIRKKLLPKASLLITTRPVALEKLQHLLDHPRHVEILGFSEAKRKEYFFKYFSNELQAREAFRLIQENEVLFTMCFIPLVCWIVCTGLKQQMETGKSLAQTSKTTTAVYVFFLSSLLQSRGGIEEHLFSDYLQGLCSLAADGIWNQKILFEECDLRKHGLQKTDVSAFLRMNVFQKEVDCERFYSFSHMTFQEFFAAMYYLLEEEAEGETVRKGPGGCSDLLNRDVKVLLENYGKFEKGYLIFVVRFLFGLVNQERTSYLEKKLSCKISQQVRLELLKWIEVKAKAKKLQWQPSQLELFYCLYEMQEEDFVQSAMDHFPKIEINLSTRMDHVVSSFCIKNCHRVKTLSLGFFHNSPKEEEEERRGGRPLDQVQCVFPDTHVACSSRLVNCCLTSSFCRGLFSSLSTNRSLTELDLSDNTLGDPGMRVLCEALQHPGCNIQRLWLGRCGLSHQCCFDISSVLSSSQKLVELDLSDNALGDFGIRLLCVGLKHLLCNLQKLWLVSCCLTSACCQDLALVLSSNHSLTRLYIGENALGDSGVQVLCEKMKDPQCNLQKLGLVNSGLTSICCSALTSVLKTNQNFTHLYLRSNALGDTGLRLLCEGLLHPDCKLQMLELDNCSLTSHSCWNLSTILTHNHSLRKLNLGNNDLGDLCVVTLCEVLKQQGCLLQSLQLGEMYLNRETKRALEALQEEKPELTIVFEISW

Structure (SMILES): CC(C)(O)c1coc(S(=O)(=O)NC(=O)Nc2c3c(cc4c2CCC4)CCC3)c1
half-life [1]: 3 h
bioavailability [2]: 68%

Structure (SMILES): O=C1C(Br)=C[C@@H](O)[C@H]2O[C@@H]12
IC50 (THP-1): 0.2 µM

Structure (SMILES): O=[N+]([O-])/C=C/c1ccc2c(c1)OCO2
IC50 [3]: 2 µM

Structure (SMILES): CCO[C@@H]1OC(=O)C[C@@H]1NC(=O)[C@@H]1CCCN2C(=O)CC[C@H](NC(=O)c3nccc4ccccc34)C(=O)N12 [PRALNACASAN]
IC50 (Caspase-1): 0.42 µM

Structure (SMILES): CCCN(CCC)S(=O)(=O)c1ccc(C(=O)O)cc1 [PROBENECID]
IC50 (Pannexin-1): 150 µM
IC50 [4]: < 100 µM
Cmax at 48 h (clinical): 124 µM

Structure (SMILES): CCOC(=O)C1=CCCC[C@H]1S(=O)(=O)Nc1ccc(F)cc1Cl [RESATORVID]
IC50 (Toll-like receptor 4): 0.0057 µM

Structure (SMILES): O=C[C@H](CC(=O)O)NC(=O)[C@@H]1CCCN2C(=O)CC[C@H](NC(=O)c3nccc4ccccc34)C(=O)N12 [VRT-18858]
IC50 (Caspase-1): 0.67 µM

Results, then the molecule that gave them:

IC50 (THP-1): 0.28 µM
Structure (SMILES): O=C1C(Br)=C[C@H](O)[C@@H]2O[C@H]12

IC50 (THP-1): 0.19 µM
Structure (SMILES): O=C1C(Br)=C[C@@H](O)[C@@H]2O[C@H]12

IC50 (THP-1): 0.17 µM
Structure (SMILES): O=C1C(Br)=C[C@H](O)[C@H]2O[C@@H]12
